From paper PMC7917901 (Marine Drugs, 2021)
Entries after “also recorded” stand apart in the source; their conditions may differ. Positions of bridges follow the written chain, without caps; N, C: chain ends. Residues, ends and D or L forms follow the SMILES beside them.

How the values were obtained:
[1] = system: oxaliplatin-induced mechanical allodynia; set-up: species or system mice (C57BL/6J); conditions: mouse, in vivo
naïve C57BL6/J mice [2] = conditions: mouse, in vivo
naïve C57BL6/J mice [3] = conditions: mouse, in vivo; remark: listed apart in the source
[4] = system: cisplatin-induced mechanical allodynia; set-up: species or system mice (C57BL/6J); conditions: mouse, in vivo
[5] = system: oxaliplatin-induced mechanical allodynia; set-up: species or system mice (C57BL/6J); conditions: mouse, in vivo; remark: listed apart in the source
[6] = in vivo; cited from earlier work
[7] = system: surgery-induced mechanical allodynia; set-up: species or system mice (C57BL/6J); conditions: mouse, in vivo
CaV channel = conditions: cited from earlier work
mouse inflammatory pain = conditions: in vivo, sc; cited from earlier work
naïve C57BL6/J mice [8] = conditions: mouse, in vivo; remark: listed apart in the source
[9] = system: surgery-induced thermal allodynia; set-up: species or system mice (C57BL/6J); conditions: mouse, in vivo
[10] = in vivo, cited from earlier work
[11] = biological target: T1, endogenous CaV2.2 channels, expressed in the SH-SY5Y cells (Homo sapiens, UniProt Q00975); experiment: cell-based
T1 construct: endogenous CaV2.2 channels, expressed in the SH-SY5Y cells; endogenous in cells; host or cells: SH-SY5Y human neuroblastoma cells
T1 sequence (Q00975 whole entry, looked up): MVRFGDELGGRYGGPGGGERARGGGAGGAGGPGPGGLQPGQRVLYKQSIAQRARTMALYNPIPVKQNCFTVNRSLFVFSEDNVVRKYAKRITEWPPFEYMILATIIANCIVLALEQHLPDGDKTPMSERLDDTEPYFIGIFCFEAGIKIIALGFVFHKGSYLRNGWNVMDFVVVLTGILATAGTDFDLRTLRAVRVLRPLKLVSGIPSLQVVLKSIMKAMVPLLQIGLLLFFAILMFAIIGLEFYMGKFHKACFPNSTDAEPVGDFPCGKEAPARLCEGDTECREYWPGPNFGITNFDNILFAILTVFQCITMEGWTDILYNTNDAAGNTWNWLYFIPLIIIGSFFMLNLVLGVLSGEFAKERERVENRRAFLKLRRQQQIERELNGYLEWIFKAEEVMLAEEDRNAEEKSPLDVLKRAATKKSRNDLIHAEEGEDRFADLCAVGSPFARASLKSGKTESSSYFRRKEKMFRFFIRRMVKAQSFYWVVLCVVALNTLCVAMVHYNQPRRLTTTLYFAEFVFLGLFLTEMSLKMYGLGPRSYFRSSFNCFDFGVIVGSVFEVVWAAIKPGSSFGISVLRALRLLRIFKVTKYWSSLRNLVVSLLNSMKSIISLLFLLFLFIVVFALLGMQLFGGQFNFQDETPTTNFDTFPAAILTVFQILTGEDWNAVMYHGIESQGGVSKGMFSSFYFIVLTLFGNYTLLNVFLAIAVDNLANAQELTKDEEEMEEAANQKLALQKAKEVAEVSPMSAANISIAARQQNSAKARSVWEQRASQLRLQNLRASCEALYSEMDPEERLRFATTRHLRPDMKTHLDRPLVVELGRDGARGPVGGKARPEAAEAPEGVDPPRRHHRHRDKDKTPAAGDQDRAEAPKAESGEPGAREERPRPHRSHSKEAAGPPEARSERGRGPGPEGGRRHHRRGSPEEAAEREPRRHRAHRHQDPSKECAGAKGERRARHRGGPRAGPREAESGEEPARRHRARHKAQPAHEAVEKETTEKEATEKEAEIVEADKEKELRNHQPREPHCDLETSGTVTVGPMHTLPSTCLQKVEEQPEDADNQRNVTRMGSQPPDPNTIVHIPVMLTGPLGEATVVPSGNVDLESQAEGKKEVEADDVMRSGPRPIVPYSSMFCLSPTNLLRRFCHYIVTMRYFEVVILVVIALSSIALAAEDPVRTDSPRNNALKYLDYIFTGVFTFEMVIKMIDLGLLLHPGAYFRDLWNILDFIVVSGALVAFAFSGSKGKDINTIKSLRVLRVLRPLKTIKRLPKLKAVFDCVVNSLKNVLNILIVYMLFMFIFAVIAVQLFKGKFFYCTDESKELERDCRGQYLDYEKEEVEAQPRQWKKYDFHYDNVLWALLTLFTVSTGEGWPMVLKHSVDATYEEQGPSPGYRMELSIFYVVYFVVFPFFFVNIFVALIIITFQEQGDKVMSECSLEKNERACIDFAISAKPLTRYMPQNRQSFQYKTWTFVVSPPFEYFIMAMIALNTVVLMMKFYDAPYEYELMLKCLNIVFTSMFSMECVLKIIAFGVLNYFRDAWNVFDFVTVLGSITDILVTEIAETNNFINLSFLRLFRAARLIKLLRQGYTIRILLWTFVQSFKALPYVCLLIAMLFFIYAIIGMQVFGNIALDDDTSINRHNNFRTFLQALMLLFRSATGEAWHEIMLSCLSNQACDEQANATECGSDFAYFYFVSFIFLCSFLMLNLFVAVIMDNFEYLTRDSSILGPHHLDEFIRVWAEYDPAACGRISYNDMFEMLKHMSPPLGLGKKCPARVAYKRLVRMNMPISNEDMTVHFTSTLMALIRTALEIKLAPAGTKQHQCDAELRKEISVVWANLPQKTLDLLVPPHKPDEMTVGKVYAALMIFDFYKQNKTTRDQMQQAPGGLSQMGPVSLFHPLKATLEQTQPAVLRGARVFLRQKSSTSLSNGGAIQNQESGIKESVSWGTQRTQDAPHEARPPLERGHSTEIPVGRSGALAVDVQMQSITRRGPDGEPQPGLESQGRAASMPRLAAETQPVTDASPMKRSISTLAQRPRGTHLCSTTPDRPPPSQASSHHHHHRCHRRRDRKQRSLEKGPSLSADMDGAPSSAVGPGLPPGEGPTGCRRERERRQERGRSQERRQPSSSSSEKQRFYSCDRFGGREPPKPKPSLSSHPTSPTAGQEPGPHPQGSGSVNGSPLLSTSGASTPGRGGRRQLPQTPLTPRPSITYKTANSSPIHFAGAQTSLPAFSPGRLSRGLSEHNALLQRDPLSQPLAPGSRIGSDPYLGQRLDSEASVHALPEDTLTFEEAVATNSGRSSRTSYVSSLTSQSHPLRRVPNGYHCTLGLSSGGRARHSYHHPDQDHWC

With `CC(C)C[C@@H]1NC(=O)[C@H](CCCNC(=N)N)NC(=O)[C@@H]2CSSC[C@@H]3NC(=O)[C@H](CO)NC(=O)[C@H](C)NC(=O)CNC(=O)[C@H](CCCCN)NC(=O)CNC(=O)[C@H](CCCCN)NC(=O)[C@@H](N)CSSC[C@H](NC(=O)[C@H](CSSC[C@@H](C(N)=O)NC(=O)[C@H](CCCNC(=N)N)NC(=O)CNC1=O)NC(=O)[C@H](CC(=O)O)NC(=O)[C@H](Cc1ccc(O)cc1)NC(=O)[C@H](CO)NC(=O)[C@H]([C@@H](C)O)NC(=O)[C@H](CCCNC(=N)N)NC(=O)[C@H](CCCNC(=N)N)NC3=O)C(=O)N[C@@H]([C@@H](C)O)C(=O)NCC(=O)N[C@@H](CO)C(=O)N2` [CVIF] (H-CKGKGASCRRTSYDCCTGSCRLGRC-NH2; disulfide 1-16, 8-20, 15-25) the “Effect of contralateral administration on OIPN mechanical PWT” value [1] was “did not significantly change mechanical PWTs; also recorded: did not reverse mechanical allodynia”, the “Mechanical PWT, OIPN, contralateral administration” value [1] was 1.6 ± 0.4 g and the “Effect on basal thermal PWT” value (naïve C57BL6/J mice [2]) was “did not significantly change mechanical and thermal PWTs”. The “Thermal PWT” value (naïve C57BL6/J mice [2]) was 50.8 ± 0.8 °C, the “Effect on basal mechanical PWT” value (naïve C57BL6/J mice [3]) was “did not significantly change mechanical and thermal PWTs” and the “Mechanical PWT” value (naïve C57BL6/J mice [3]) was 3.1 ± 0.2 g. For the same compound, the “Effect on CisIPN mechanical PWT” value [4] was “did not significantly change the PWTs; also recorded: did not produce any significant antiallodynic effect”, the “Mechanical PWT, CisIPN, 2 pmol/paw” value [4] was 2.0 ± 0.3 g and the “Activity across the pain models” value [5] was “inactive in these pain models; also recorded: not found effective in any of the peripheral pain models”. The “Effect on OIPN mechanical PWT, 6 pmol/paw” value [5] was “did not significantly change PWTs; also recorded: did not elicit significant antiallodynic effect”, the “Mechanical PWT, OIPN, 2.0 pmol/paw” value [5] was 1.9 ± 0.2 g and the “Mechanical PWT, OIPN, 6.0 pmol/paw” value [5] was 1.7 ± 0.1 g. The “Safety profile” value [6] was “better safety profile in preclinical studies”, the “Effect on PSP mechanical allodynia, 6.0 pmol/paw” value [7] was “remained unchanged; also recorded: did not produce any significant antiallodynic effect” and the “Mechanical PWT, PSP, 6.0 pmol/paw” value [7] was 1.4 ± 0.1 g. The “State dependence of affinity” value (CaV channel) was “higher affinity for channels in the inactivated state”, the “Effect on inflammatory pain” value (mouse inflammatory pain) was “partially reversed the incapacitance of mouse inflammatory pain” and the “Side effects after subcutaneous administration” value (mouse inflammatory pain) was “did not cause side effects”. For the same compound, the Ataxia index (naïve C57BL6/J mice [8]) was 7.3 ± 1.8, the “Ataxia index (paw slips/distance covered)” value (naïve C57BL6/J mice [8]) was 7.3 ± 1.8 m and the Distance covered (naïve C57BL6/J mice [8]) was 1.7 ± 0.4 m. For the same compound, the “Number of paw slips” value (naïve C57BL6/J mice [8]) was 10.5 ± 1.5, the “Number of paw slips (printed with unit g)” value (naïve C57BL6/J mice [8]) was 10.5 ± 1.5 g and the “Effect on PSP thermal allodynia” value [9] was “did not reverse thermal allodynia”. For the same compound, the “Thermal PWT, PSP, 2.0 pmol/paw” value [9] was 48.9 ± 0.4 °C.

In the case of `CSCC[C@@H]1NC(=O)[C@H](CC(C)C)NC(=O)[C@H](CCCNC(=N)N)NC(=O)[C@H](CO)NC(=O)[C@@H]2CSSC[C@@H]3NC(=O)[C@H](CO)NC(=O)CNC(=O)[C@H]([C@@H](C)O)NC(=O)[C@H](CSSC[C@H](N)C(=O)N[C@@H](CCCCN)C(=O)NCC(=O)N[C@@H](CCCCN)C(=O)NCC(=O)N[C@@H](C)C(=O)N[C@@H](CCCCN)C(=O)N2)NC(=O)[C@H](CSSC[C@@H](C(N)=O)NC(=O)[C@H](CCCCN)NC(=O)CNC(=O)[C@H](CO)NC(=O)[C@H](CCCNC(=N)N)NC3=O)NC(=O)[C@H](CC(=O)O)NC(=O)[C@H](Cc2ccc(O)cc2)NC1=O` [MVIIA], the “Effect on basal thermal PWT” value (naïve C57BL6/J mice [2]) is listed as “did not significantly change mechanical and thermal PWTs”, the “Effect on basal mechanical PWT” value (naïve C57BL6/J mice [3]) is listed as “did not significantly change mechanical and thermal PWTs” and the “Oral bioavailability and CNS access” value ([10]; po) is listed as “Poor oral bioavailability and CNS access”. The “Plasma half-life” value [10] was “short plasma half-life”, the Ataxia index (naïve C57BL6/J mice [8]) was 6.7 ± 1.6 and the “Ataxia index (paw slips/distance covered)” value (naïve C57BL6/J mice [8]) was 6.7 ± 1.6 m. The Distance covered (naïve C57BL6/J mice [8]) was 1.8 ± 0.3 m, the “Number of paw slips” value (naïve C57BL6/J mice [8]) was 11.0 ± 1.8 and the “Number of paw slips (printed with unit g)” value (naïve C57BL6/J mice [8]) was 11.0 ± 1.8 g.

For `C[C@@H](O)[C@@H]1NC(=O)[C@H](Cc2ccc(O)cc2)NC(=O)[C@@H]2C[C@@H](O)CN2C(=O)[C@H](CC(N)=O)NC(=O)[C@@H]2CSSC[C@@H]3NC(=O)[C@H](CO)NC(=O)[C@H](CO)NC(=O)CNC(=O)[C@@H]4C[C@@H](O)CN4C(=O)[C@H](CO)NC(=O)[C@H](CCCCN)NC(=O)[C@@H](N)CSSC[C@H](NC(=O)[C@H](CSSC[C@@H](C(=O)N[C@@H](Cc4ccc(O)cc4)C(N)=O)NC(=O)[C@H](CCCN=C(N)N)NC(=O)[C@H](CCCCN)NC1=O)NC(=O)[C@H](CC(N)=O)NC(=O)[C@H](Cc1ccc(O)cc1)NC(=O)[C@H](CO)NC(=O)[C@H]([C@@H](C)O)NC(=O)[C@@H]1C[C@@H](O)CN1C(=O)[C@H](CO)NC3=O)C(=O)N[C@@H](CCCN=C(N)N)C(=O)N[C@@H](CO)C(=O)N2` [GVIA], the “Effect on basal thermal PWT” value (naïve C57BL6/J mice [2]) was “did not significantly change mechanical and thermal PWTs”, the “Effect on basal mechanical PWT” value (naïve C57BL6/J mice [3]) was “did not significantly change mechanical and thermal PWTs” and the IC50 [11] was 11.2 ± 3.3 nM. The Ataxia index (naïve C57BL6/J mice [8]) was 6.9 ± 1.7, the “Ataxia index (paw slips/distance covered)” value (naïve C57BL6/J mice [8]) was 6.9 ± 1.7 m and the Distance covered (naïve C57BL6/J mice [8]) was 1.7 ± 0.2 m. The “Number of paw slips” value (naïve C57BL6/J mice [8]) was 11.3 ± 2.8.
